According to patent US7820628B2, “Tumor lesion regression and conversion in situ into autologous tumor vaccines by compositions that result in anti-Gal antibody binding” (University of Massachusetts Medical School, priority 2005, dated 2010):

Tested on: human natural anti-Gal
Experiment: TLC immunostaining of red blood cell glycolipids with human natural anti-Gal
Assay type: binding
Settings: glycolipids on thin layer chromatography plates
Source text: A rich source for α-gal glycolipids is rabbit red blood cells. The two major glycosphingolipids (GSL), i.e. glycolipids with ceramide tail, in rabbit red blood cell membranes are ceramide (Cer) trihexoside (CTH, with 3 sugars [hexoses], present also in human red blood cells) with the structure Galα1-4Galβ1-4Glc-Cer and ceramide pentahexoside (CPH, with 5 sugars [hexoses]) with α-gal epitopes as terminal part of the CPH structure of Galα1-3Galβ1-4GlcNAcβ1-3Galβ1-4Glc-Cer (Eto T, Iichikawa Y, Nishimura K, Ando S, Yamakawa T J. Biochem. (Tokyo) 1968; 64: 205-13, and Stellner K, Saito H, Hakomori S. Arch. Biochem. Biophys. 1973; 133: 464-72) (See FIG. 1 and FIG. 6A, lane 1).
The use of α-gal glycolipids in the clinical setting may require much more material than that isolated from rabbit red blood cell membranes. The logistic limitations in supplies of large amounts of rabbit red blood cells can be overcome by the use of bovine red blood cells (i.e., for example, cow) instead of rabbit red blood cells since there is no practical limit to the amounts of bovine blood which can be supplied for preparation of α-gal glycolipids. […]

## Galα1-3Galβ1-4GlcNAcβ1-3Galβ1-4Glc-Cer [CPH]
  anti-Gal binding on TLC immunostaining: binding of the antibody to CPH
